# Laboratory results taken from patent publication US10881110B2, “Herbicidal compositions comprising isoxazolo[5,4-b]pyridines” (BASF SE, priority 2014, dated 2021).
# Values joined by “and” are separate entries in the source; they are usually repeats but may differ in a detail not shown here. Equal entries are not always repeated. Where two headings read alike, the source gives them in different places.
# Tests used:
# Experiment in all cases: greenhouse post-emergence herbicidal test
# ALOMY = assay type: in vivo, Alopecurus myosuroides; set-up: key to herbicidal activity against ALOMY found: rating on a scale from 0 to 100; conditions: post emergence
# How it was run: (§1)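 Visual rating at 20 days after treatment used a 0–100 scale, where 100 meant no emergence or complete destruction of above-ground parts. Seedlings of 1–15 cm, grown at species-dependent 10-25° C or 20-35° C, received water-based spray liquor containing the formulated components.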
# AMARE = assay type: in vivo, Amaranthus retroflexus
# Protocol: The culture containers used were plastic pots containing medium loamy sand with approximately 4.6% of humus and 69.9% sand as substrate. The seeds of the test plants were sown separately for each species.
# For the post-emergence treatment, the test plants were grown to a plant height of from 1 to 15 cm, depending on the plant habit, and only then treated with the active compounds which had been suspended or emulsified in water. To this end, the test plants were either sown directly, and grown in the same containers, or they were first grown separately as seedlings and transplanted into the test containers a few days prior to treatment.
# Depending on the species, the plants were kept at 10-25° C. and 20-35° C., respectively.
# The test period extended over 1 to 3 weeks. During this time, the plants were tended and their response to the individual treatments was evaluated 20 days after treatment except mentioned otherwise.
# Evaluation was carried out using a scale from 0 to 100. 100 means no emergence of the plants, or complete destruction of at least the above-ground parts, and 0 means no damage or normal course of growth.
# The respective stated components A and B, and, if appropriate, C, were formulated as a 10% by weight strength emulsion concentrate and, with addition of the amount of solvent system, introduced into the spray liquor used for applying the active compound. In the examples, the solvent used was water.
# In the examples below, using the method of S. R. Colby (1967) “Calculating synergistic and antagonistic responses of herbicide combinations”, Weeds 15, p. 22 ff., the value E, which is expected if the activity of the individual active compounds is only additive, was calculated. E=X+Y−(X·Y/100)
# AMBEL = assay type: in vivo, Ambrosia artemisiifolia; set-up: key: rating on a scale from 0 to 100
# How it was run: as §1
# POLCO = assay type: in vivo, Polygonum convolvulus; set-up: key to herbicidal activity against POLCO found: rating on a scale from 0 to 100; conditions: post emergence; for herbicidal activity against POLCO found: 6 days after treatment
# How it was run: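 Herbicidal activity scored on a 0 (no damage) to 100 (plants destroyed) scale, usually 20 days after water-based spraying of 1–15 cm plants grown in loamy sand at 10-25 °C or 20-35 °C depending on species. Components were applied from 10% emulsion concentrates; Colby's E=X+Y−(X·Y/100) gives the additive expectation.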
# [1] = applied alone at 31.25 g/ha a.i.
# [2] = a.i. g/ha: I.1 20.8, B.192 62.5, 20 days after treatment
smiles,measurement,setting,value
O=C(O)c1cc(C2CC2)nc2onc(C3CC3)c12 [I.1],pest or weed control at 31.25 g/ha,"ALOMY; Alopecurus myosuroides, post-emergence, 480 h, I.1 alone 31.25 g/ha a.i., read-out: herbicidal activity against ALOMY found",0%
same,pest or weed control at 31.25 g/ha,"ALOMY; Alopecurus myosuroides, post-emergence, 480 h, I.1 31.25 g/ha a.i., read-out: herbicidal activity against ALOMY found",0%
same,pest or weed control at 62.5 g/ha,"ALOMY; Alopecurus myosuroides, post-emergence, 480 h, I.1 62.5 g/ha a.i., read-out: herbicidal activity against ALOMY found",0%
same,pest or weed control at 125 g/ha,"ALOMY; Alopecurus myosuroides, post-emergence, 480 h, I.1 125 g/ha a.i., read-out: herbicidal activity against ALOMY found",25%
same,pest or weed control at 15.62 g/ha,"ALOMY; Alopecurus myosuroides, post-emergence, 480 h, single active, 15.62 g/ha a.i., read-out: herbicidal activity against ALOMY found",0%
same,pest or weed control at 31.25 g/ha,"ALOMY; Alopecurus myosuroides, post-emergence, 480 h, single active, 31.25 g/ha a.i., read-out: herbicidal activity against ALOMY found",0%
same,pest or weed control at 62.5 g/ha,"ALOMY; Alopecurus myosuroides, post-emergence, 480 h, single active, 62.5 g/ha a.i., read-out: herbicidal activity against ALOMY found",0%
same,pest or weed control at 125 g/ha,"ALOMY; Alopecurus myosuroides, post-emergence, 480 h, single active, 125 g/ha a.i., read-out: herbicidal activity against ALOMY found",25%
same,herbicidal activity against ALOMY found,"ALOMY; I.1 31.25 g/ha, B.95 1 g/ha a.i.",0
same,herbicidal activity against ALOMY found,"ALOMY; I.1 62.5 g/ha, B.88 1 g/ha a.i.",0
same,herbicidal activity against ALOMY found,"ALOMY; I.1 62.5 g/ha, B.88 2 g/ha a.i.",0
same,herbicidal activity against ALOMY found,"ALOMY; I.1 62.5 g/ha, B.89 12.5 g/ha a.i.",0
same,herbicidal activity against ALOMY found,"ALOMY; I.1 62.5 g/ha, B.95 1 g/ha a.i.",0
same,herbicidal activity against ALOMY found,"ALOMY; a.i. g/ha: I.1 6.9, B.67 62.5, 20 days after treatment",0%
same,herbicidal activity against ALOMY found,"ALOMY; a.i. g/ha: I.1 20.8, B.67 62.5, 20 days after treatment",0%
same,herbicidal activity against ALOMY found,"ALOMY; a.i. g/ha: I.1 62.5, B.67 62.5, 20 days after treatment",0%
same,herbicidal activity against ALOMY found,"ALOMY; application rate a.i.: I.1 250 g/ha, B.193 15 g/ha, alone or as mixture (composition 1.193)",45
same,herbicidal activity against ALOMY found,ALOMY; [1],0
same,herbicidal activity against ALOMY found,ALOMY; applied alone at 125 g/ha a.i.,20 and 25
same,herbicidal activity against ALOMY found,"ALOMY; g/ha a.i.: I.1 31.25, B.52 2.5, mixture 31.25+2.5",25
same,herbicidal activity against ALOMY found,"ALOMY; g/ha a.i.: I.1 62.5, B.20 4, mixture 62.5+4",25
same,herbicidal activity against ALOMY found,"ALOMY; g/ha a.i.: I.1 62.5, B.52 2.5, mixture 62.5+2.5",25
same,herbicidal activity against ALOMY found,"ALOMY; g/ha a.i.: I.1 125, B.20 2, mixture 125+2",30
same,herbicidal activity against ALOMY found,"ALOMY; g/ha a.i.: I.1 125, B.20 4, mixture 125+4",30
same,herbicidal activity against ALOMY found,"ALOMY; g/ha a.i.: I.1 125, B.24 1, mixture 125+1",30
same,herbicidal activity against ALOMY found,"ALOMY; g/ha a.i.: I.1 125, B.24 2, mixture 125+2",30
same,herbicidal activity against ALOMY found,"ALOMY; g/ha a.i.: I.1 125, B.52 2.5, mixture 125+2.5",30
same,herbicidal activity against ALOMY found,"ALOMY; g/ha a.i.: I.1 125, B.63 0.5, mixture 125+0.5",30
same,herbicidal activity against AMARE found,"AMARE; a.i. g/ha: I.1 15.6, B.190 62.5, 20 days after treatment",30%
same,herbicidal activity against AMARE found,AMARE; [2],70%
same,herbicidal activity against AMARE found,"AMARE; a.i. g/ha: I.1 31.25, B.190 62.5, 20 days after treatment",35%
same,herbicidal activity against AMARE found,"AMARE; a.i. g/ha: I.1 31.25, B.76 225, 20 days after treatment",90%
same,herbicidal activity against AMARE found,"AMARE; a.i. g/ha: I.1 31.25, bentazon Na 125, 20 days after treatment",35%
same,herbicidal activity against AMBEL found,AMBEL; 31.25 g/ha a.i.,85
same,herbicidal activity against AMBEL found,AMBEL; I.1 alone 125 g/ha a.i.,65
same,herbicidal activity against AMBEL found,AMBEL; [2],30%
same,herbicidal activity against AMBEL found,"AMBEL; application rate a.i.: I.1 31.25 g/ha, B.100 (isoxaflutole) 12.5 g/ha, alone or as mixture (composition 1.100)",90
same,herbicidal activity against AMBEL found,"AMBEL; application rate a.i.: I.1 31.25 g/ha, B.139 (pyroxasulfone) 12.5 g/ha, alone or as mixture (composition 1.139)",65
same,herbicidal activity against AMBEL found,"AMBEL; application rate a.i.: I.1 31.25 g/ha, B.84 (paraquat-dichloride) 17.5 g/ha, alone or as mixture (composition 1.84)",65
same,herbicidal activity against AMBEL found,"AMBEL; application rate a.i.: I.1 62.5 g/ha, B.100 (isoxaflutole) 12.5 g/ha, alone or as mixture (composition 1.100)",90
same,herbicidal activity against AMBEL found,AMBEL; [1],75
same,herbicidal activity against AMBEL found,"AMBEL; single active, 15.62 g/ha a.i.",0
same,herbicidal activity against AMBEL found,"AMBEL; single active, 15.625 g/ha a.i.",0
same,pest or weed control at 31.25 g/ha,"POLCO; Fallopia convolvulus, post-emergence, 480 h, I.1 alone 31.25 g/ha a.i., read-out: herbicidal activity against POLCO found",0%
same,pest or weed control at 62.5 g/ha,"POLCO; Fallopia convolvulus, post-emergence, 480 h, I.1 alone 62.5 g/ha a.i., read-out: herbicidal activity against POLCO found",65%
same,pest or weed control at 125 g/ha,"POLCO; Fallopia convolvulus, post-emergence, 480 h, I.1 alone 125 g/ha a.i., read-out: herbicidal activity against POLCO found",65%
same,pest or weed control at 31.25 g/ha,"POLCO; Fallopia convolvulus, post-emergence, 480 h, I.1 31.25 g/ha a.i., read-out: herbicidal activity against POLCO found",20%
same,pest or weed control at 31.25 g/ha,"POLCO; Fallopia convolvulus, post-emergence, 480 h, single active, 31.25 g/ha a.i., read-out: herbicidal activity against POLCO found",20%
same,herbicidal activity against POLCO found,"POLCO; g/ha a.i.: I.1 31.25, B.96 70, mixture 31.25+70",35
same,herbicidal activity against POLCO found,"POLCO; g/ha a.i.: I.1 31.25, B.96 140, mixture 31.25+140",35
same,herbicidal activity against POLCO found,"POLCO; g/ha a.i.: I.1 31.25, naptalam 50, mixture 31.25+50",35
same,herbicidal activity against POLCO found,"POLCO; g/ha a.i.: I.1 62.5, B.96 70, mixture 62.5+70",70
